The results in this text go back to patent US10392389B2, “Heterocyclic compounds for the inhibition of PASK” (BioEnergenix, LLC, priority 2012, dated 2019).

SMILES strings stand for the structures.

The target of the experiment is T1, PASK (Invitrogen) (Homo sapiens, UniProt Q96RG2).
T1 construct: IC50 Kinase Domain; purchased Invitrogen
T1 sequence (Q96RG2 999-1251 limits assumed): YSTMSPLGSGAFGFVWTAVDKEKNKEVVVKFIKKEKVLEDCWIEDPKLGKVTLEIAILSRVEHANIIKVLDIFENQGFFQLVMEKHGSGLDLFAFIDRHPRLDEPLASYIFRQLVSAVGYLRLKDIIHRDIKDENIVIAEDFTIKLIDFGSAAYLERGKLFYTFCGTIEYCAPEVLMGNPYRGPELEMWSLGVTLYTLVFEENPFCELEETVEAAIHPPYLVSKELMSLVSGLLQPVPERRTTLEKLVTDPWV
The experiment can be described thus: PAS Kinase FRET Assay. It counts as biochemical. To be noted: PAS kinase TR-FRET assay (665 nm/615 nm); read-out: IC50 Kinase Domain. From the text: Biochemical Assay for hPASK Activity
The aim of the FRET assay is to determine the inhibition potential of test compounds on targeted kinase. This assay platform provides a homogenous screening method for measuring kinase activity by quantitating the amount of phospho-substrate in solution following a kinase reaction.
In the presence of kinase and ATP, the Ulight-peptide is phosphorylated and captured by an anti-phospho-substrate antibody, which brings the Eu chelate donor and Ulight acceptor dyes into close proximity. Upon excitation at 340 nm, the Eu chelate transfers its energy to the Ulight dye, resulting in a fluorescent light emission at 665 nm.
Titration of kinase at 1 mM ATP was achieved via the following protocol. After making serial three-fold dilutions of PASK (Invitrogen) in reaction buffer across the plate; 5 μl of kinase dilution and 5 μl substrate/ATP mix were added to the wells of the white Optiplate-384 (PerkinElmer). The contents of the plate were and incubated at RT for 1 h. The reaction was stopped by adding 5 μl of stop solution to each test well followed by mixing and incubation at RT for 10 minutes. 5 μl of detection mix (detection antibody diluted in detection buffer) was added; the contents of the plate were mixed and then incubated in the dark for 1 hour at RT. The signal was recorded at TR-FRET mode (665 nm/615 nm). The results were graphed to calculate the EC50.
Titration of ATP at the EC50 concentration of kinase to determine ATP Km,app. was performed using the following method. After making serial dilutions of ATP (Invitrogen), 5 μl of ATP dilution and 5 μl substrate/kinase mix were added to the wells of the white Optiplate-384 (PerkinElmer). The contents of the plate were and incubated at RT for 1 h. The reaction was stopped by adding 5 μl of stop solution to each test well followed by mixing and incubation at RT for 10 minutes. 5 μl of detection mix (detection antibody diluted in detection buffer) was added; the contents of the plate were mixed and then incubated in the dark for 1 hour at RT. The signal was recorded at TR-FRET mode (665 nm/615 nm). The results were graphed to calculate the EC50 as the ATP Km,app.
Compound screening was done via the following method. 10 mM stock solution of test compound in DMSO was prepared by dissolving test compound in DMSO at RT for 1 hour, and then sonicating at 100% output for 8 minutes. If compound is not soluble under this condition, it was diluted to 3 mM. Kinase reaction buffer was prepared containing 10 mM MgCl2, 50 mM HEPES, 1 mM EGTA, 0.01% TWEEN-20, 2 mM DTT. Serial dilutions of the test compounds were prepared at 4× final assay concentrations using Freedom EVO200® dispensing system as follows: 12×10^−5 M, 4×10^−5 M, 1.33×10^−5 M, 4.44×10^−6 M, 1.48×10^−6 M, 4.92×10^−7 M, 1.65×10^−7 M, […], 1.82×10^−8M, 6.09×10^−9, 2.03×10^−9 M. Test compounds (2.5 μl at 4× the final assay concentration) was added to wells using Freedom EVO200® dispensing system. As a positive control, 2.5 μl of positive compound was added to assay wells, and 2.5 μl of DMSO to assay wells as vehicle control. Kinase solution was prepared in reaction buffer at 2× final assay concentration. Kinase solution (5 μl) was added to each well of the assay plate. The substrate and ATP solution was prepared in kinase reaction buffer at 4× final assay concentration. The kinase reaction was started by adding 2.5 μl of substrate+ATP mix solution to each well of the assay plate. The plate is mixed on a plate shaker; then covered and allowed to react for 2 hours in the dark at 25° C. without shaking. The reaction was stopped by adding 5 μl of stop solution to each test well followed by mixing and incubation at RT for 10 minutes in the dark. 5 μl of detection mix (detection antibody diluted in detection buffer) was added; the contents of the plate were mixed and then incubated in the dark for 1 hour at RT. The signal was recorded at TR-FRET mode (665 nm/615 nm).
A general note: Time-resolved FRET reads energy transfer from a long-lived donor to a nearby acceptor.
What is called IC50 is the midpoint of a concentration-inhibition curve. As to `CCc1cnc(-c2cnn3c(=O)cc(-c4ccc5[nH]nnc5c4)[nH]c23)o1` [Example 6, 5-(1H-1,2,3-benzotriazol-5-yl)-3-(5-ethyl-1,3-oxazol-2-yl)-4H,7H-pyrazolo[1,5-a]pyrimidin-7-one], the 50% inhibitory concentration (IC50) was at most 10 µM.
The result for `Cc1noc(-c2cnn3c(=O)cc(-c4ccc(Cl)cc4)[nH]c23)n1` [Example 7, 5-(4-chlorophenyl)-3-(3-methyl-1,2,4-oxadiazol-5-yl)-4H,7H-pyrazolo[1,5-a]pyrimidin-7-one] reads at most 10 µM.
The result for `Cc1noc(-c2c(C)nn3c(=O)cc(-c4ccc(Cl)cc4)[nH]c23)n1` [Example 8, 5-(4-chlorophenyl)-2-methyl-3-(3-methyl-1,2,4-oxadiazol-5-yl)-4H,7H-pyrazolo[1,5-a]pyrimidin-7-one] reads at most 10 µM.
The result for `Cc1noc(-c2c(O)nn3c(=O)cc(-c4ccc(Cl)cc4)[nH]c23)n1` [Example 9, 5-(4-chlorophenyl)-2-hydroxy-3-(3-methyl-1,2,4-oxadiazol-5-yl)-4H,7H-pyrazolo[1,5-a]pyrimidin-7-one] reads at most 10 µM; that for `COc1nn2c(=O)cc(-c3ccc(Cl)cc3)[nH]c2c1-c1nc(C)no1` [Example 10, 5-(4-chlorophenyl)-2-methoxy-3-(3-methyl-1,2,4-oxadiazol-5-yl)-4H,7H-pyrazolo[1,5-a]pyrimidin-7-one], at most 10 µM; that for `Cc1coc(-c2cnn3c(=O)cc(-c4ccc5[nH]nnc5c4)[nH]c23)n1` [Example 11, 5-(1H-1,2,3-benzotriazol-5-yl)-3-(4-methyl-1,3-oxazol-2-yl)-4H,7H-pyrazolo[1,5-a]pyrimidin-7-one], at most 10 µM.
With `CCc1cnc(-c2cnn3c(=O)cc(-c4ccc5c(c4)OCO5)[nH]c23)o1` [Example 14, 5-(2H-1,3-benzodioxol-5-yl)-3-(5-ethyl-1,3-oxazol-2-yl)-4H,7H-pyrazolo[1,5-a]pyrimidin-7-one], the IC50 is at most 10 µM.
The result for `CCn1ncc2cc(-c3cc(=O)n4ncc(-c5nc(C)cs5)c4[nH]3)ccc21` [Example 25, 5-(1-ethyl-1H-indazol-5-yl)-3-(4-methyl-1,3-thiazol-2-yl)-4H,7H-pyrazolo[1,5-a]pyrimidin-7-one] reads at most 10 µM.
As to `CCn1ncc2cc(-c3cc(=O)n4ncc(-c5nccs5)c4[nH]3)ccc21` [Example 26, 5-(1-ethyl-1H-indazol-5-yl)-3-(thiazol-2-yl)-4H,7H-pyrazolo[1,5-a]pyrimidin-7-one], the concentration for half-maximal inhibition (IC50) is at most 10 µM.
The figure for `CCc1coc(-c2cnn3c(=O)cc(-c4ccc5c(cnn5CC)c4)[nH]c23)n1` [Example 28, 5-(1-ethyl-1H-indazol-5-yl)-3-(4-ethyloxazol-2-yl)pyrazolo[1,5-a]pyrimidin-7(4H)-one] is at most 10 µM; for `CCn1ncc2cc(-c3cc(=O)n4nc(C)c(-c5ncco5)c4[nH]3)ccc21` [Example 29, 5-(1-ethyl-1H-indazol-5-yl)-2-methyl-3-(oxazol-2-yl)-4H,7H-pyrazolo[1,5-a]pyrimidin-7-one] it is at most 10 µM.
With `CCn1ncc2cc(-c3cc(=O)n4ncc(-c5nnc(C)o5)c4[nH]3)ccc21` [Example 31, 5-(1-ethyl-1H-indazol-5-yl)-3-(5-methyl-1,3,4-oxadiazol-2-yl)-4H,7H-pyrazolo[1,5-a]pyrimidin-7-one], the half-inhibitory concentration (IC50) was at most 10 µM.
The figure for `CCn1ncc2cc(-c3cc(=O)n4ncc(-c5ccn(C)n5)c4[nH]3)ccc21` [Example 32, 5-(1-ethyl-1H-indazol-5-yl)-3-(1-methyl-1H-pyrazol-3-yl)-4H,7H-pyrazolo[1,5-a]pyrimidin-7-one] is at most 10 µM.
The result for `CCn1ncc2cc(-c3cc(=O)n4ncc(-c5nc6ccccc6o5)c4[nH]3)ccc21` [Example 33, 3-(benzo[d]oxazol-2-yl)-5-(1-ethyl-1H-indazol-5-yl)pyrazolo[1,5-a]pyrimidin-7(4H)-one] reads at most 10 µM; that for `CCOc1cc(-c2cc(=O)n3ncc(-c4ncco4)c3[nH]2)ccc1Cl` [Example 34, 5-(4-chloro-3-ethoxyphenyl)-3-(oxazol-2-yl)-4H,7H-pyrazolo[1,5-a]pyrimidin-7-one], at most 10 µM.
The result for `CCOc1cc(-c2cc(=O)n3ncc(-c4ncc(CC)o4)c3[nH]2)ccc1Cl` [Example 35, 5-(4-chloro-3-ethoxyphenyl)-3-(5-ethyloxazol-2-yl)-4H,7H-pyrazolo[1,5-a]pyrimidin-7-one] reads at most 10 µM.
In the case of `CCOc1cc(-c2cc(=O)n3ncc(-c4ncc(C)o4)c3[nH]2)ccc1F` [Example 36, 5-(3-ethoxy-4-fluorophenyl)-3-(5-methyloxazol-2-yl)-4H,7H-pyrazolo[1,5-a]pyrimidin-7-one], the IC50 was at most 10 µM.
The figure for `Cc1cnc(-c2cnn3c(=O)cc(-c4ccc(Cl)c(OCC(F)(F)F)c4)[nH]c23)o1` [Example 37, 5-[4-chloro-3-(2,2,2-trifluoroethoxy)phenyl]-3-(5-methyloxazol-2-yl)-4H,7H-pyrazolo[1,5-a]pyrimidin-7-one] is at most 10 µM; for `Cc1cnc(-c2cnn3c(=O)cc(-c4ccc(Cl)c(OC(F)(F)F)c4)[nH]c23)o1` [Example 38, 5-[4-chloro-3-(trifluoromethoxy)phenyl]-3-(5-methyloxazol-2-yl)-4H,7H-pyrazolo[1,5-a]pyrimidin-7-one] it is at most 10 µM.
Regarding `COc1cc(-c2cc(=O)n3ncc(-c4nccs4)c3[nH]2)ccc1Cl` [Example 39, 5-(4-chloro-3-methoxyphenyl)-3-(thiazol-2-yl)-4H,7H-pyrazolo[1,5-a]pyrimidin-7-one], the half-maximal inhibitory concentration (IC50) is at most 10 µM.
On to `CCn1ncc2cc(-c3cc(=O)n4ncc(-c5nc6ccccc6s5)c4[nH]3)ccc21` [Example 40, 3-(benzo[d]thiazol-2-yl)-5-(1-ethyl-1H-indazol-5-yl)pyrazolo[1,5-a]pyrimidin-7(4H)-one], for which the half-maximal inhibitory concentration (IC50) is at most 10 µM.
On to `COc1cc(-c2cc(=O)n3ncc(-c4nc5ccccc5s4)c3[nH]2)ccc1Cl` [Example 41, 3-(benzo[d]thiazol-2-yl)-5-(4-chloro-3-methoxyphenyl)pyrazolo[1,5-a]pyrimidin-7(4H)-one], for which the IC50 is at most 10 µM.
As to `CCn1ncc2cc(-c3cc(=O)n4nc(C)c(-c5nc(C)co5)c4[nH]3)ccc21` [Example 42, 5-(1-ethyl-1H-indazol-5-yl)-2-methyl-3-(4-methyloxazol-2-yl)-4H,7H-pyrazolo[1,5-a]pyrimidin-7-one], the 50% inhibitory concentration (IC50) is at most 10 µM.
As to `O=c1cc(-c2ccc3occc3c2)[nH]c2c(-c3nccs3)cnn12` [Example 44, 5-(benzofuran-5-yl)-3-(thiazol-2-yl)pyrazolo[1,5-a]pyrimidin-7(4H)-one], the IC50 was at most 10 µM.
The result for `COc1cc(-c2cc(=O)n3ncc(-c4nc5ccccc5o4)c3[nH]2)ccc1Cl` [Example 45, 3-(benzo[d]oxazol-2-yl)-5-(4-chloro-3-methoxyphenyl)pyrazolo[1,5-a]pyrimidin-7(4H)-one] reads at most 10 µM; that for `CCOc1cc(-c2cc(=O)n3ncc(-c4ncc(C)o4)c3[nH]2)ccc1Cl` [Example 46, 5-(4-chloro-3-ethoxyphenyl)-3-(5-methyloxazol-2-yl)pyrazolo[1,5-a]pyrimidin-7(4H)-one], at most 10 µM; that for `Cc1cnc(-c2cnn3c(=O)cc(-c4ccc(Cl)cc4)[nH]c23)o1` [Example 47, 5-(4-chlorophenyl)-3-(5-methyloxazol-2-yl)pyrazolo[1,5-a]pyrimidin-7(4H)-one], at most 10 µM.
